{
  "source": "paper PMC7608815",
  "about": "(Science Advances, 2020)",
  "key": {"[1]": {"biological_target": "T1, SlMT3 (Solanum lycopersicum, UniProt D2Y3T9)", "T1 sequence (D2Y3T9 1-361)": "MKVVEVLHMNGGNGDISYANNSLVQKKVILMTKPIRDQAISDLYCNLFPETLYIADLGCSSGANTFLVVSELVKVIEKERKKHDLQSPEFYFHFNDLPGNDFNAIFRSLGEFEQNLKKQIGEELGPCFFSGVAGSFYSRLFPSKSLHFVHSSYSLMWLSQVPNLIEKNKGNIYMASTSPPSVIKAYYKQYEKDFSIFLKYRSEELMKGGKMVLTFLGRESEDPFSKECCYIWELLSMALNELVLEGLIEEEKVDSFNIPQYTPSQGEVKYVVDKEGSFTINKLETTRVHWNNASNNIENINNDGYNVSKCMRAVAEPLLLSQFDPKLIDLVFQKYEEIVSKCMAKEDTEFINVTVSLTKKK", "experiment": "yeast feeding assay, qToF-MS of methylation product", "assay_type": "cell-based", "conditions": "100 uM fed substrate plus endogenous yeast 3-HAA, 72 h, 30 C"}, "[2]": {"biological_target": "T2, AtCHS (Arabidopsis thaliana, UniProt P13114)", "T2 sequence (P13114 2-395)": "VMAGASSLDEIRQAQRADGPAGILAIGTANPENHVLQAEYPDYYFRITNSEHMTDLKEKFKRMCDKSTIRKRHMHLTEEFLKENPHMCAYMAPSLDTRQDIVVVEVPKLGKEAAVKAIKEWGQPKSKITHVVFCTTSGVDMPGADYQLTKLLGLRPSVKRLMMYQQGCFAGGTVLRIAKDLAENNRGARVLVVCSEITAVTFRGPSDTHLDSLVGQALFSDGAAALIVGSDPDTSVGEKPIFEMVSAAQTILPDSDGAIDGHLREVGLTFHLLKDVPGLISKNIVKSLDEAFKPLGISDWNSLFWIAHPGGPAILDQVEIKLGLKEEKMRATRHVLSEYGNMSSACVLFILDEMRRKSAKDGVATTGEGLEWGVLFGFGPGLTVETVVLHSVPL", "experiment": "LC-MS/MS product detection, end point […] h", "assay_type": "biochemical", "conditions": "200 uM p-coumaroyl-CoA, 30 C"}},
  "data": [
    {"smiles": "Nc1c(O)cccc1C(=O)O", "note": "[3-HAA]", "values": [
      {"measurement": "yeast feeding assay, qToF-MS of methylation product", "setting": "[1]", "value": "SlMT3 exhibited detectable activity only toward 3-HAA"}
    ]},
    {"smiles": "COC(=O)c1cccc(O)c1N", "note": "[compound 1, Methyl 2-amino-3-hydroxybenzoate]", "values": [
      {"measurement": "LC-MS/MS product detection, end point 4 h", "setting": "[2]; 200 uM 3-HAA methyl ester, amide synthesis", "value": "highest production of amide with 3-HAA methyl ester"}
    ]},
    {"smiles": "CC(C)(COP(=O)(O)OP(=O)(O)OC[C@H]1O[C@@H](n2cnc3c(N)ncnc32)[C@H](O)[C@@H]1OP(=O)(O)O)[C@@H](O)C(=O)NCCC(=O)NCCSC(=O)CC(=O)O", "note": "[malonyl-CoA]", "values": [
      {"measurement": "LC-MS/MS product detection, end point 4 h", "setting": "[2]; 200 uM malonyl-CoA, naringenin chalcone synthesis", "value": "its activities on malonyl-CoA and 3-HAA methyl ester were analyzed under the same assay conditions"}
    ]}
  ]
}
